Data as given in patent US11970479B2, “3-(1H-pyrazol-4-yl)pyridine allosteric modulators of the M4 muscarinic acetylcholine receptor” (Merck Sharp & Dohme LLC, priority 2018, dated 2024).
pEC50: −log10 of the molar value.

Biological target: T1, human M4 muscarinic acetylcholine receptor (Homo sapiens, UniProt P08173)
T1 construct: expressed in transfected cells
T1 sequence (P08173 1-479): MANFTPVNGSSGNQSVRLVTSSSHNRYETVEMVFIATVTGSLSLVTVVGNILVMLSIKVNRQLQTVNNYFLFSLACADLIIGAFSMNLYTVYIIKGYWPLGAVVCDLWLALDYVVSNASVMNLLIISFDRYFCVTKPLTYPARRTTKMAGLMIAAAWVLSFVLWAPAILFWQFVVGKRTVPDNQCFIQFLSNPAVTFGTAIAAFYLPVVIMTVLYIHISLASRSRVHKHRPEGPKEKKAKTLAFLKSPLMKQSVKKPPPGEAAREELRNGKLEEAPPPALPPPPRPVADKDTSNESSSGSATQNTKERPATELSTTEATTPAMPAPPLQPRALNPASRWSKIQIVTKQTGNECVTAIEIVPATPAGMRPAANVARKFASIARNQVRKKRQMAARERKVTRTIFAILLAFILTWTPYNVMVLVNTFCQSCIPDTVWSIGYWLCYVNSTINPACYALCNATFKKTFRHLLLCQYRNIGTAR
Experiment: human FLIPR-based M4 PAM assay (CHO-K1 cells with human M4 receptor and Gαqi5, calcium dye fluorescence, EC20 acetylcholine)
Format: cell-based
Details: inflection point (IP) of the dose response curve, human M4 receptor/Gαqi5, acetylcholine at 20% of maximum response, read-out: M4PAM Hu IP
Outline: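 CHO-K1 cells stably expressing human M4 and chimeric Gαqi5 were dye-loaded ~1 h at 37° C. Test compound was added with fluorescence recorded 4 min, then acetylcholine at EC20 (sometimes a further EC70 addition) with reading 3.5 min. Value is the inflection point of a 4-parameter logistic fit.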

pEC50 | Structure (SMILES)
7.36 | CC(C)(Cn1cc(-c2ccc(C#N)nc2-c2ccc3cccnc3c2)cn1)C(F)(F)F [Example 88, 6-quinolin-7-yl-5-[1-(3,3,3-trifluoro-2,2-dimethylpropyl)-1H-pyrazol-4-yl]pyridine-2-carbonitrile]
7.28 | CC(C)(C)CCn1cc(-c2ccc(C#N)nc2-c2ccc3cccnc3c2)cn1 [Example 89, 5-[1-(3,3-dimethylbutyl)-1H-pyrazol-4-yl]-6-quinolin-7-ylpyridine-2-carbonitrile]
7.57 | CC(C)(Cn1cc(-c2ccc(C#N)nc2-c2ccc3cccnc3c2)cn1)C(F)F [Example 90, 5-[1-(3,3-difluoro-2,2-dimethylpropyl)-1H-pyrazol-4-yl]-6-quinolin-7-ylpyridine-2-carbonitrile]
6.72 | CC(C)(CCn1cc(-c2ccc(C#N)nc2-c2ccc3cccnc3c2)cn1)C(F)(F)F [Example 91, 6-quinolin-7-yl-5-[1-(4,4,4-trifluoro-3,3-dimethylbutyl)-1H-pyrazol-4-yl]pyridine-2-carbonitrile]
6.88 | N#Cc1ccc(-c2cnn(CC(F)(F)C(F)F)c2)c(-c2ccc3cccnc3c2)n1 [Example 92, 6-quinolin-7-yl-5-[1-(2,2,3,3-tetrahydropropyl)-1H-pyrazol-4-yl]pyridine-2-carbonitrile]
7.62 | Cc1ccc(-c2cnn(CC3(C)CCC(F)(F)CC3)c2)c(-c2ccc3cccnc3c2)n1 [Example 93, 7-(3-{1-[(4,4-difluoro-1-methylcyclohexyl)methyl]-1H-pyrazol-4-yl}-6-methylpyridin-2-yl)quinoline]
7.28 | CC1(Cn2cc(-c3cccnc3-c3ccc4cccnc4c3)cn2)CCCCC1 [Example 94, 7-(3-{1-[(1-methylcyclohexyl)methyl]-1H-pyrazol-4-yl}pyridin-2-yl)quinoline]
6.80 | c1cnc(-c2ccc3cccnc3c2)c(-c2cnn(CCC3CCC3)c2)c1 [Example 95, 7-{3-[1-(2-cyclobutylethyl)-1H-pyrazol-4-yl]pyridin-2-yl}quinoline]
6.62 | c1cnc(-c2ccc3cccnc3c2)c(-c2cnn(CCC3CC3)c2)c1 [Example 96, 7-{3-[1-(2-cyclopropylethyl)-1H-pyrazol-4-yl]pyridin-2-yl}quinoline]
7.06 | CC1(Cn2cc(-c3ccc(C#N)nc3-c3ccc4cccnc4c3)cn2)CC1 [Example 97, 5-{1-[(1-methylcyclopropyl)methyl]-1H-pyrazol-4-yl}-6-quinolin-7-ylpyridine-2-carbonitrile]
7.09 | COc1cc2ccc(-c3nc(C)ccc3-c3cnn(CC4CC4(C)C)c3)cc2nn1 (stereo not shown) [Example 100, 7-(3-{1-[(2,2-dimethylcyclopropyl)methyl]-1H-pyrazol-4-yl}-6-methylpyridin-2-yl)-3-methoxycinnoline]
7.00 | Cc1ccc(-c2cnn(CC3CC3(C)C)c2)c(-c2ccc3cccnc3c2)n1 (stereo not shown) [Example 101, 7-(3-{1-[(2,2-dimethylcyclopropyl)methyl]-1H-pyrazol-4-yl}-6-methylpyridin-2-yl)quinoline]
7.04 | COc1cc2ccc(-c3nc(C#N)ccc3-c3cnn(CC4CC4(C)C)c3)cc2nn1 (stereo not shown) [Example 102, 5-{1-[(2,2-dimethylcyclopropyl)methyl]-1H-pyrazol-4-yl}-6-(3-methoxycinnolin-7-yl)pyridine-2-carbonitrile]
7.35 | CC1(C)CC1Cn1cc(-c2ccc(C#N)nc2-c2ccc3cccnc3c2)cn1 (stereo not shown) [Example 103, 5-{1-[(2,2-dimethylcyclopropyl)methyl]-1H-pyrazol-4-yl}-6-quinolin-7-ylpyridine-2-carbonitrile]
6.81 | COc1cc2ccc(-c3nc(C#N)ccc3-c3cnn(CC4(CC#N)CC4)c3)cc2nn1 [Example 104, 5-(1-{[1-(cyanomethyl)cyclopropyl]methyl}-1H-pyrazol-4-yl)-6-(3-methoxycinnolin-7-yl)pyridine-2-carbonitrile]
6.92 | N#CCC1(Cn2cc(-c3ccc(C#N)nc3-c3ccc4cccnc4c3)cn2)CC1 [Example 105, 5-(1-{[1-(cyanomethyl)cyclopropyl]methyl}-1H-pyrazol-4-yl)-6-quinolin-7-ylpyridine-2-carbonitrile]
7.03 | c1cnc(-c2ccc3cccnc3c2)c(-c2cnn(CC3CCCCC3)c2)c1 [Example 106, 7-{3-[1-(cyclohexylmethyl)-1H-pyrazol-4-yl]pyridin-2-yl}quinoline]
7.80 | COc1cc2ccc(-c3nc(C)ccc3-c3cnn(CC4CCCCC4)c3)cc2nn1 [Example 107, 7-{3-[1-(cyclohexylmethyl)-1H-pyrazol-4-yl]-6-methylpyridin-2-yl}-3-methoxycinnoline]
6.85 | COc1cc2ccc(-c3nc(C)ccc3-c3cnn(C4CCC(F)(F)CC4)c3)cc2nn1 [Example 108, 7-{3-[1-(4,4-difluorocyclohexyl)-1H-pyrazol-4-yl]-6-methylpyridin-2-yl}-3-methoxycinnoline]
7.32 | CC(C)(C)Cn1cc(-c2ccc(C(F)F)nc2-c2ccc3cccnc3c2)cn1 [Example 109, 7-{6-(difluoromethyl)-3-[1-(2,2-dimethylpropyl)-1H-pyrazol-4-yl]pyridin-2-yl}quinoline]
6.89 | CC(C)Cn1cc(-c2ccc(C#N)nc2-c2ccc3cccnc3c2)cn1 [Example 110, 5-[1-(2-methylpropyl)-1H-pyrazol-4-yl]-6-quinolin-7-ylpyridine-2-carbonitrile]
6.96 | N#Cc1ccc(-c2cnn(CC3(F)CC3)c2)c(-c2ccc3cccnc3c2)n1 [Example 111, 5-{1-[(1-fluorocyclopropyl)methyl]-1H-pyrazol-4-yl}-6-quinolin-7-ylpyridine-2-carbonitrile]
6.86 | COc1cc2ccc(-c3nc(C#N)ccc3-c3cnn(CC(F)(F)C(F)(F)F)c3)cc2nn1 [Example 112, 6-(3-methoxycinnolin-7-yl)-5-[1-(2,2,3,3,3-pentafluoropropyl)-1H-pyrazol-4-yl]pyridine-2-carbonitrile]
6.86 | CC(C)(CO)Cn1cc(-c2ccc(C#N)nc2-c2ccc3cccnc3c2)cn1 [Example 113, 5-[1-(3-hydroxy-2,2-dimethylpropyl)-1H-pyrazol-4-yl]-6-quinolin-7-ylpyridine-2-carbonitrile]
6.72 | COc1cc2ccc(-c3nc(C)ccc3-c3cnn(CC(C)(C)F)c3)cc2nn1 [Example 114, 7-{3-[1-(2-fluoro-2-methylpropyl)-1H-pyrazol-4-yl]-6-methylpyridin-2-yl}-3-methoxycinnoline]
6.72 | COc1cc2ccc(-c3nc(C(F)F)ccc3-c3cnn(CC(C)(C)F)c3)cc2nn1 [Example 115, 7-{6-(difluoromethyl)-3-[1-(2-fluoro-2-methylpropyl)-1H-pyrazol-4-yl]pyridin-2-yl}-3-methoxycinnoline]
7.41 | N#Cc1ccc(-c2cnn(CC3(F)CCC3)c2)c(-c2ccc3cccnc3c2)n1 [Example 116, 5-{1-[(1-fluorocyclobutyl)methyl]-1H-pyrazol-4-yl}-6-quinolin-7-ylpyridine-2-carbonitrile]
6.98 | CC(C)(O)C(F)(F)Cn1cc(-c2ccc(C#N)nc2-c2ccc3cccnc3c2)cn1 [Example 117, 5-[1-(2,2-difluoro-3-hydroxy-3-methylbutyl)-1H-pyrazol-4-yl]-6-quinolin-7-ylpyridine-2-carbonitrile]
